Source: US8921582B2, “Oligo- and polyfurans, preparation and uses thereof” (Yeda Research and Development Co. Ltd., priority 2009, dated 2014)
Converted amounts (≈) assume the structure as drawn. Like-named read-outs stand apart in the source and are kept apart here.

Tests used:
[1] = Solubility of oligofurans in organic solvent; type: physicochemical; details: for solubility: in chloroform (solvent stated)
[2] = Thermogravimetric analysis (TGA) / stability in air; type: physicochemical; details: stable in air in the absence of light, FIG. 3
Procedure: FIG. 3 depicts Thermogravimetric Analysis (TGA) of oligofurans (a) 5F-8F and (b) 9F under N2, rate: 5° C./min.
FIG. 11 depicts thermogravimetric analysis (TGA) of oligofurans 6F, 8F and DH-6F under N2. Rate: 5° C./min.

With `c1csc(-c2ccc(-c3ccc(-c4ccc(-c5ccc(-c6cccs6)s5)s4)s3)s2)c1` [6T, α-sexithiophene, reference compound] the solubility [1] was under 0.05 mg/mL.
For `c1coc(-c2ccc(-c3ccc(-c4ccc(-c5ccc(-c6ccco6)o5)o4)o3)o2)c1` [6F, α-sexifuran], the “solubility of 6F relative to corresponding 6T” value ([1]; in chloroform) was “over 10 times”, the solubility ([1]; organic solvent or mixture, read-out: solubility) was 0.7 mg/mL (≈ 1760 µM) and the decomposition temperature [2] was 303 °C.
For `c1coc(-c2ccc(-c3ccc(-c4ccc(-c5ccc(-c6ccc(-c7ccc(-c8ccc(-c9ccco9)o8)o7)o6)o5)o4)o3)o2)c1` [9F, α-nonafuran], the “solubility in warm acetone” value ([1]; warm acetone, Soxhlet extraction) was “slightly soluble”.
